Results reported in patent US20070292895A1, “Assays and methods to detect beta-secretase and its activity in body fluids and tissue extracts” (priority 2006, published 2007).
Blank lines part the entries; values can stand above or below the compound they belong to. Non-standard residues stand in square brackets, D forms with d. Residues, ends and D or L forms follow the SMILES beside them. *: point of attachment. Sta = CC(C)C[C@H](N)[C@@H](O)CC(=O)O; Isovaleryl = CC(C)CC(=O)*

Key:
[1] = target: T1, BACE-1 (Mus musculus, UniProt P56818); assay: Brain BACE-1 activity assay, brain membrane extract, coumarin-labeled 10-mer substrate, HPLC detection; type: biochemical; conditions: E64 at 10 μM; membrane preparations from WT mice
T1 construct: a brain membrane extract containing endogenous BACE-1; from tissue; host or cells: mouse brain membrane preparation (wild-type mice)
T1 sequence (P56818 46-501): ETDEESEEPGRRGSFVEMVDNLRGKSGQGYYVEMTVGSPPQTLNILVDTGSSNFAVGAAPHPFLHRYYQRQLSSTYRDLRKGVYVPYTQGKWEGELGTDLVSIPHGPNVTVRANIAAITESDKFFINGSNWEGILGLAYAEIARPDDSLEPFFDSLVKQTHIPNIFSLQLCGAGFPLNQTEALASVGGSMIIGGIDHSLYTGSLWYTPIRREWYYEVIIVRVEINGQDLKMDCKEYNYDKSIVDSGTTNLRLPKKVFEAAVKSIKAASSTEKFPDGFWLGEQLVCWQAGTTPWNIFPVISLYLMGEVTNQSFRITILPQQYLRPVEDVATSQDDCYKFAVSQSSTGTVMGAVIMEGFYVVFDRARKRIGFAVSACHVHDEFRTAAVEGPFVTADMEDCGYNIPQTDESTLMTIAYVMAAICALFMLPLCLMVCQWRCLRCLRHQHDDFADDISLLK
Protocol: (§1) Brain BACE-1 enzymatic activity was measured using brain membrane extracts in a two-step method. In the first reaction step, a brain membrane extract containing endogenous BACE-1 is reacted with a coumarin labeled 10-mer peptide substrate in the presence of non-specific protease inhibitor cocktail and aspartyl protease inhibitor Pepstatin A. In a second detection step, an HPLC-based detection method is used to determine the extent of enzymatic cleavage of the 10-mer substrate.
(§2) Brain membranes are prepared as follows. Mice brain sections are homogenized in 10× w/v 50 mM MES buffer with protease inhibitor (Roche Applied Science, Indianapolis, Ind., Cat#11836145), pH 6.0 using a glass/Teflon homogenizer, using about 10 strokes. The homogenates are then spun at 2000 rpm (900×g) at 4° C. for 10 minutes. […] Protein concentration is determined using modified Bradford method (DC protein assay kit Cat#500-0114, Bio-Rad Laboratories, Hercules, Calif.). […]
(§3) In the second step, the BACE-1 cleavage product is detected. The resulting mixture is then chromatographed in a Waters Alliance HT HPLC system (Waters 2790, Waters Corporation, Milford, Mass.) to detect product and substrate fluorescence as follows. […]
(§4) The amount of cleaved product and substrate are detected with excitation at 340 nm and emission at 440 nm.

[2] = system: BACE-1 activity in CSF; assay: CSF BACE-1 activity with combinations of protease inhibitors (FIG. 9); type: biochemical; conditions: Merck-3 at 10 μM; Pepstatin A 10 μM present
Protocol: (§5) This example illustrates a method for solution based detection of BACE-1 activity in cerebral spinal fluid (CSF). BACE-1 enzymatic activity in CSF was measured using a two-step method. In the first step, cleavage of a biotinylated peptide substrate is accomplished using CSF as the source of BACE-1 enzyme. In the second step, the extent of enzymatic cleavage of substrate is detected using an avidin-biotin complex and enzyme linked immunosorbent assay (ELISA).
(§6) In the peptide substrate cleavage step, 25 μL of either purified recombinant baculovirus expressed BACE-1(aa1-460) at a range of concentration from 0.8 pM to 100 pM or rhesus or human CSF is added to the wells of a 96 well assay plate (COSTAR brand, Cat#3365). […]
(§7) In the second step, the product of BACE-1 enzymatic cleavage of the biotin-labeled peptide is measured by ELISA. […]
(§8) Afterwards, the plate is washed three times with PBST. […] The reaction is finally developed using 100 μL/well of CDP-STAR ready-to-use with HRP substrate (EMD Biosciences, Inc. San Diego, Calif.) or SAPPHIRE-II Enhancer substrate (Applied Biosystems, Foster City, Calif., Cat# T2214) for 30 minutes at room temperature. Absorbance or Luminescence counts, respectively, are measured in LJL-Analyst (Molecular Devices Corp., Sunnyvale, Calif.). […]

[3] = system: non-specific aspartyl protease activity; assay: Non-specific aspartyl protease activity in brain membrane preparations, same HPLC cleavage assay; type: biochemical, mouse; conditions: membrane preparations from WT mice
Protocol: as §1, §2, §3, §4

[4] = system: non-specific aspartyl protease activity; assay: Non-specific aspartyl protease activity in CSF (FIG. 9); type: biochemical; conditions: Pepstatin A 10 μM; this activity was about 59% of the protease activity in CSF
Protocol: as §5, §6, §7, §8

effect on cleavage of substrate (FIG. 4) [1]: no effect on cleavage of substrate
Structure (SMILES): CC(C)C[C@H](NC(=O)[C@H]1O[C@@H]1C(=O)O)C(=O)NCCCCN=C(N)N [E64]

Structure (SMILES): C[C@@H](NC(=O)c1cc(C(=O)N[C@@H](Cc2ccccc2)[C@H](O)CNC2CC2)cc(N(C)S(C)(=O)=O)c1)c1ccccc1 [Merck-3]
BACE-1 activity in CSF remaining after Pepstatin A (FIG. 9) [2]: completely abolished

Structure (SMILES): CC(C)CC(=O)N[C@H](C(=O)N[C@H](C(=O)N[C@@H](CC(C)C)[C@@H](O)CC(=O)N[C@@H](C)C(=O)N[C@@H](CC(C)C)[C@@H](O)CC(=O)O)C(C)C)C(C)C [Pepstatin A, pepstatin A] (Isovaleryl-VV[Sta]A[Sta]-OH)
non-specific aspartyl protease activity (FIG. 4) [3]: abolished | non-specific aspartyl protease activity in CSF (FIG. 9) [4]: abolished
